Tests used:
[1] = The drug is tested on Bifidobacterium breve strain: DSM20213 for biotransformation. The drug concentrations were measured before and after a 12-h incubation by liquid-chromatography-coupled mass spectrometry (LC–MS); conditions: 2 µM
[2] = The drug is tested on Bifidobacterium longum subsp. Infantis strain: CCUG52486 for biotransformation. The drug concentrations were measured before and after a 12-h incubation by liquid-chromatography-coupled mass spectrometry (LC–MS); conditions: 2 µM
[3] = The drug is tested on Collinsella intestinalis strain: DSM13280 for biotransformation. The drug concentrations were measured before and after a 12-h incubation by liquid-chromatography-coupled mass spectrometry (LC–MS); conditions: 2 µM
[4] = The drug is tested on Bacteroides fragilis strain: ATCC43859 for biotransformation. The drug concentrations were measured before and after a 12-h incubation by liquid-chromatography-coupled mass spectrometry (LC–MS); conditions: 2 µM
[5] = The drug is tested on Bacteroides pectinophilus strain: ATCC43243 for biotransformation. The drug concentrations were measured before and after a 12-h incubation by liquid-chromatography-coupled mass spectrometry (LC–MS); conditions: 2 µM
[6] = The drug is tested on Bacteroides sp. WH2 strain: WH2 for biotransformation. The drug concentrations were measured before and after a 12-h incubation by liquid-chromatography-coupled mass spectrometry (LC–MS); conditions: bacteroides sp. wh2, 12 h, 2 µM
[7] = The drug is tested on Bacteroides xylanisolvens strain: DSM18836 for biotransformation. The drug concentrations were measured before and after a 12-h incubation by liquid-chromatography-coupled mass spectrometry (LC–MS); conditions: 2 µM
[8] = The drug is tested on Blautia hansenii strain: DSM20583 for biotransformation. The drug concentrations were measured before and after a 12-h incubation by liquid-chromatography-coupled mass spectrometry (LC–MS); conditions: 2 µM
[9] = The drug is tested on Clostridium symbiosum strain: ATCC14940 for biotransformation. The drug concentrations were measured before and after a 12-h incubation by liquid-chromatography-coupled mass spectrometry (LC–MS); conditions: 2 µM
[10] = The drug is tested on Eubacterium hallii strain: DSM3353 for biotransformation. The drug concentrations were measured before and after a 12-h incubation by liquid-chromatography-coupled mass spectrometry (LC–MS); conditions: anaerobutyricum hallii, 2 µM
[11] = The drug is tested on Eubacterium ventriosum strain: ATCC27560 for biotransformation. The drug concentrations were measured before and after a 12-h incubation by liquid-chromatography-coupled mass spectrometry (LC–MS); format: ADME; set-up: dose 2 uM, timepoint 0 vs 12 hours; conditions: 2 µM
[12] = The drug is tested on Ruminococcus gnavus strain: ATCC29149 for biotransformation. The drug concentrations were measured before and after a 12-h incubation by liquid-chromatography-coupled mass spectrometry (LC–MS); conditions: mediterraneibacter gnavus, 2 µM
[13] = The drug is tested on Edwardsiella tarda strain: ATCC23685 for biotransformation. The drug concentrations were measured before and after a 12-h incubation by liquid-chromatography-coupled mass spectrometry (LC–MS); conditions: 2 µM
[14] = The drug is tested on Providencia stuartii strain: ATCC25827 for biotransformation. The drug concentrations were measured before and after a 12-h incubation by liquid-chromatography-coupled mass spectrometry (LC–MS); conditions: 2 µM
[15] = bifidobacterium adolescentis, 12 h, 2 µM
Description: The drug is tested on Bifidobacterium adolescentis strain: ATCC 15703 for biotransformation. The drug concentrations were measured before and after a 12-h incubation by liquid-chromatography-coupled mass spectrometry (LC–MS)

[16] = bacteroides fragilis, 12 h, 2 µM
Description: The drug is tested on Bacteroides fragilis strain: NCTC 9343 for biotransformation. The drug concentrations were measured before and after a 12-h incubation by liquid-chromatography-coupled mass spectrometry (LC–MS)

[17] = bacteroides fragilis, 12 h, 2 µM; remark: listed apart in the source
Description: The drug is tested on Bacteroides fragilis strain: 3397 (T10) for biotransformation. The drug concentrations were measured before and after a 12-h incubation by liquid-chromatography-coupled mass spectrometry (LC–MS)

[18] = bacteroides intestinalis, 12 h, 2 µM
Description: The drug is tested on Bacteroides intestinalis strain: DSM17393 for biotransformation. The drug concentrations were measured before and after a 12-h incubation by liquid-chromatography-coupled mass spectrometry (LC–MS)

[19] = bacteroides thetaiotaomicron, 12 h, 2 µM
Description: The drug is tested on Bacteroides thetaiotaomicron strain: 3731 for biotransformation. The drug concentrations were measured before and after a 12-h incubation by liquid-chromatography-coupled mass spectrometry (LC–MS)

[20] = enterocloster bolteae, 12 h, 2 µM
Description: The drug is tested on Clostridium bolteae strain: ATCCBAA-613 for biotransformation. The drug concentrations were measured before and after a 12-h incubation by liquid-chromatography-coupled mass spectrometry (LC–MS)

| SMILES | Bacterial Biotransformation [1] | Bacterial Biotransformation [2] | Bacterial Biotransformation [3] | Bacterial Biotransformation [4] | Bacterial Biotransformation [5] | Bacterial Biotransformation [6] | Bacterial Biotransformation [7] | Bacterial Biotransformation [8] | Bacterial Biotransformation [9] | Bacterial Biotransformation [10] | Bacterial Biotransformation [11] | Bacterial Biotransformation [12] | Bacterial Biotransformation [13] | Bacterial Biotransformation [14] | Bacterial Biotransformation [15] | Bacterial Biotransformation [16] | Bacterial Biotransformation [17] | Bacterial Biotransformation [18] | Bacterial Biotransformation [19] | Bacterial Biotransformation [20] |
| --- | --- | --- | --- | --- | --- | --- | --- | --- | --- | --- | --- | --- | --- | --- | --- | --- | --- | --- | --- | --- |
| CC1=C(CC(=O)O)c2cc(F)ccc2/C1=C\c1ccc([S+](C)[O-])cc1 (configuration not stated) | Compound NOT metabolized | Compound NOT metabolized | Compound NOT metabolized | Compound NOT metabolized | Compound NOT metabolized | Compound NOT metabolized | Compound NOT metabolized | Compound NOT metabolized | Compound NOT metabolized | Compound NOT metabolized | Compound NOT metabolized | Compound NOT metabolized | Compound NOT metabolized | Compound NOT metabolized | Compound NOT metabolized | Compound NOT metabolized | Compound NOT metabolized | Compound NOT metabolized | Compound NOT metabolized | Compound NOT metabolized |
| O=c1[nH]c2ccccc2n1C1CCN(CCCC(c2ccc(F)cc2)c2ccc(F)cc2)CC1 [PIMOZIDE] | Compound NOT metabolized | Compound NOT metabolized | Compound NOT metabolized | Compound NOT metabolized | Compound NOT metabolized | Compound NOT metabolized | Compound NOT metabolized | Compound NOT metabolized | Compound NOT metabolized | Compound NOT metabolized | Compound NOT metabolized | Compound NOT metabolized | Compound NOT metabolized | Compound NOT metabolized | Compound NOT metabolized | Compound NOT metabolized | Compound NOT metabolized | Compound NOT metabolized | Compound NOT metabolized | Compound NOT metabolized |
| C[C@]12C=CC(=O)C=C1CC[C@@H]1[C@@H]2C(=O)C[C@@]2(C)[C@H]1CC[C@]2(O)C(=O)CO [PREDNISONE] | Compound NOT metabolized | Compound NOT metabolized | Compound NOT metabolized | Compound NOT metabolized | Compound NOT metabolized | Compound NOT metabolized | Compound NOT metabolized | Compound NOT metabolized | Compound NOT metabolized | Compound NOT metabolized | Compound NOT metabolized | Compound NOT metabolized | Compound NOT metabolized | Compound NOT metabolized | Compound NOT metabolized | Compound NOT metabolized | Compound NOT metabolized | Compound NOT metabolized | Compound NOT metabolized | Compound NOT metabolized |
| CNNCc1ccc(C(=O)NC(C)C)cc1 [PROCARBAZINE] | Compound NOT metabolized | Compound NOT metabolized | Compound NOT metabolized | Compound metabolized | Compound NOT metabolized |  | Compound NOT metabolized | Compound NOT metabolized | Compound NOT metabolized | Compound NOT metabolized | Compound NOT metabolized | Compound NOT metabolized | Compound NOT metabolized | Compound NOT metabolized | Compound NOT metabolized | Compound NOT metabolized | Compound NOT metabolized |  | Compound NOT metabolized | Compound NOT metabolized |
| CC(CN1c2ccccc2Sc2ccccc21)N(C)C (configuration not stated) [PROMETHAZINE] | Compound NOT metabolized | Compound NOT metabolized | Compound NOT metabolized | Compound NOT metabolized | Compound NOT metabolized | Compound NOT metabolized | Compound NOT metabolized | Compound NOT metabolized | Compound NOT metabolized | Compound NOT metabolized | Compound NOT metabolized | Compound NOT metabolized | Compound NOT metabolized | Compound NOT metabolized | Compound NOT metabolized | Compound NOT metabolized | Compound NOT metabolized | Compound NOT metabolized | Compound NOT metabolized | Compound NOT metabolized |
| COc1ccccc1OCC(O)CN1CCN(CC(=O)Nc2c(C)cccc2C)CC1 (configuration not stated) [RANOLAZINE] | Compound NOT metabolized | Compound NOT metabolized | Compound NOT metabolized | Compound NOT metabolized | Compound NOT metabolized | Compound NOT metabolized | Compound NOT metabolized | Compound NOT metabolized | Compound NOT metabolized | Compound NOT metabolized | Compound NOT metabolized | Compound NOT metabolized | Compound NOT metabolized | Compound NOT metabolized | Compound NOT metabolized | Compound NOT metabolized | Compound NOT metabolized | Compound NOT metabolized | Compound NOT metabolized | Compound NOT metabolized |
| CCCc1nn(C)c2c(=O)[nH]c(-c3cc(S(=O)(=O)N4CCN(C)CC4)ccc3OCC)nc12.O=C(O)CC(O)(CC(=O)O)C(=O)O [SILDENAFIL CITRATE] | Compound NOT metabolized | Compound NOT metabolized | Compound NOT metabolized | Compound NOT metabolized | Compound NOT metabolized | Compound NOT metabolized | Compound metabolized | Compound metabolized | Compound NOT metabolized | Compound NOT metabolized | Compound NOT metabolized | Compound NOT metabolized | Compound NOT metabolized | Compound NOT metabolized | Compound NOT metabolized | Compound metabolized | Compound NOT metabolized | Compound NOT metabolized | Compound NOT metabolized |  |

— ChEMBL document CHEMBL5303573, “Mapping human microbiome drug metabolism by gut bacteria and their genes” (Nature, 2019)
